{"source": "patent US6916843B1", "about": "“Anti-inflammatory actions of cytochrome P450 expoxygenase-derived eicosanoids” (The United States of America as represented by the …, priority 1999, dated 2005)", "system": "IκB-α", "test": "Fate of IκB-α after TNF-α stimulation of human endothelial cells", "format": "cell-based", "settings": "TNF-α 10 ng/ml, 15 min; EET 100 nM", "from_the_text": "Co-treatment with [11,12]-EET prevented the nuclear accumulation of RelA. Since the nuclear translocation of RelA requires the degradation of its endogenous cytoplasmic inhibitor, inhibitor kappa B (IκB-α), we followed the fate of IκB-α after TNF-α stimulation in the presence or absence of [11,12]-EET. Stimulation of human endothelial cells with TNF-α caused a rapid and almost complete disappearance of IκB-α which was prevented by co-treatment with [11,12]-EET, but not [14,15]-EET.\nA set of gel shift assays was performed. […] In some assays, [11,12]-EET (100 nM) was also added directly to the IKK assay (in vitro). As a control for nonspecific phosphorylation, the assay was performed without the addition of immunoprecipitated IKK (no enzyme) or in the presence of a IκB-α mutant (ΔSer 32, Ser 36→Thr) as substrate. The assay was performed three times with similar results.\nSpecificity of IKB was determined by the complete absence of phosphorylation when the mutated IκB-α substrate, GST-1κB-α (Δ32,36: S→T) which cannot be phosphorylated at serine residues 32 and 36, was substituted for wild-type GST-IκB-α."}
{"smiles": "CCCCC/C=C\\C[C@H]1O[C@H]1C/C=C\\C/C=C\\CCCC(=O)O", "note": "[[11,12]-EET]", "values": [{"measurement": "effect on TNF-α-induced disappearance/degradation of IκB-α", "value": "prevented"}]}
